Tests used:
Format in all cases: in vivo
[1] = tested on: Japanese bulrush (Scirpus juncoides Roxb.); experiment: Test Example 1: herbicidal effect by soil application to paddy field; details: paddy field soil application; active ingredient 1,000 g per 1 hectare; wettable powder added dropwise to water surface the day after sowing; examined on the 21st day after application
Outline: (§1)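 Plants were sown in flooded (3 cm) paddy soil and evaluated for herbicidal effect 21 days after soil application in a greenhouse.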

[2] = tested on: early watergrass (Echinochloa oryzicola Vasing); experiment: as above; details: paddy field soil application; active ingredient 1,000 g per 1 hectare; wettable powder added dropwise to water surface the day after sowing; examined on the 21st day after application
Outline: as §1

[3] = tested on: heartshape false pickerelweed (Monochoria vaginalis (Burm.f.) C.Presl); experiment: as above; details: paddy field soil application; active ingredient 1,000 g per 1 hectare; wettable powder added dropwise to water surface the day after sowing; examined on the 21st day after application
Outline: as §1

[4] = tested on: barnyardgrass (Echinochloa crus-galli (L.) P. Beauv. var. crus-galli); experiment: Test Example 2: herbicidal effect by soil application to upland field; details: soil surface spray, upland field soil, 1,000 g active ingredient per hectare, 21st day after application
Outline: (§2)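 Scoring on a standard scale took place 21 days after application, with plants kept in a greenhouse. Active ingredient (1,000 g/ha, as diluted wettable powder, 1,000 L/ha) was sprayed evenly onto soil directly after sowing and covering seeds.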

[5] = tested on: green foxtail (Setaria viridis (L.) P. Beauv.); experiment: as above; details: soil surface spray, upland field soil, 1,000 g active ingredient per hectare, 21st day after application
Outline: as §2

[6] = tested on: slender amaranth (Amaranthus viridis L.); experiment: as above; details: soil surface spray, upland field soil, 1,000 g active ingredient per hectare, 21st day after application
Outline: as §2

[7] = tested on: velvetleaf (Abutilon theophrasti medicus); experiment: as above; details: soil surface spray, upland field soil, 1,000 g active ingredient per hectare, 21st day after application
Outline: as §2

[8] = tested on: barnyardgrass (Echinochloa crus-galli (L.) P. Beauv. var. crus-galli); experiment: Test Example 3: herbicidal effect by application to upland field (foliage treatment); details: 14th day after application; for herbicidal effect (index), Barnyardgrass: foliage treatment, plants grown two weeks, 1,000 g active ingredient per hectare
Outline: (§3)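 Plants were sown in field soil and raised in a greenhouse for two weeks before foliar spraying. A water-diluted wettable powder was applied at 1,000 g active ingredient per hectare in 1,000 liters per hectare. Herbicidal effect was scored on a standard scale 14 days later.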

[9] = tested on: green foxtail (Setaria viridis (L.) P. Beauv.); experiment: as above; details: 14th day after application; for herbicidal effect (index), Green Foxtail: foliage treatment, plants grown two weeks, 1,000 g active ingredient per hectare
Outline: as §3

[10] = tested on: slender amaranth (Amaranthus viridis L.); experiment: as above; details: 14th day after application; for herbicidal effect (index), Slender Amaranth: foliage treatment, plants grown two weeks, 1,000 g active ingredient per hectare
Outline: as §3

[11] = tested on: velvetleaf (Abutilon theophrasti medicus); experiment: as above; details: 14th day after application; for herbicidal effect (index), Velvetleaf: foliage treatment, plants grown two weeks, 1,000 g active ingredient per hectare
Outline: as §3

[12] = foliage treatment, 1,000 g active ingredient per 1 hectare, greenhouse

## COC(C)Cn1c(C(F)(F)F)ccc(C(=O)C2=C(O)C3CCC(C3)C2=O)c1=O (stereo not drawn) [III-24]
[1]
  herbicidal effect, Scirpus juncoides Roxb.: 5 (90% or more of herbicidal effect and crop phytotoxicity)
[2]
  herbicidal effect, Echinochloa oryzicola Vasing: 5 (90% or more of herbicidal effect and crop phytotoxicity)
[3]
  herbicidal effect, Monochoria vaginalis (Burm. f.) C. Presl: 5 (90% or more of herbicidal effect and crop phytotoxicity)
[4]
  herbicidal effect (index), Barnyardgrass: 5 (90% or more of herbicidal effect and crop phytotoxicity)
[5]
  herbicidal effect (index), Green Foxtail: 5 (90% or more of herbicidal effect and crop phytotoxicity)
[6]
  herbicidal effect (index), Slender Amaranth: 5 (90% or more of herbicidal effect and crop phytotoxicity)
[7]
  herbicidal effect (index), Velvetleaf: 5 (90% or more of herbicidal effect and crop phytotoxicity)
[8]; [12]
  herbicidal effect, Barnyardgrass: 5 (90% or more of herbicidal effect and crop phytotoxicity)
[9]; [12]
  herbicidal effect, Green Foxtail: 5 (90% or more of herbicidal effect and crop phytotoxicity)
[10]; [12]
  herbicidal effect, Slender Amaranth: 5 (90% or more of herbicidal effect and crop phytotoxicity)
[11]; [12]
  herbicidal effect, Velvetleaf: 5 (90% or more of herbicidal effect and crop phytotoxicity)

## C[S+]([O-])c1cccc(-n2c(C(F)(F)F)ccc(C(=O)C3=C(O)CCCC3=O)c2=O)c1 (stereo not drawn) [I-81]
[1]
  herbicidal effect, Scirpus juncoides Roxb.: 5 (90% or more of herbicidal effect and crop phytotoxicity)
[2]
  herbicidal effect, Echinochloa oryzicola Vasing: 5 (90% or more of herbicidal effect and crop phytotoxicity)
[3]
  herbicidal effect, Monochoria vaginalis (Burm. f.) C. Presl: 5 (90% or more of herbicidal effect and crop phytotoxicity)
[4]
  herbicidal effect (index), Barnyardgrass: 5 (90% or more of herbicidal effect and crop phytotoxicity)
[5]
  herbicidal effect (index), Green Foxtail: 5 (90% or more of herbicidal effect and crop phytotoxicity)
[6]
  herbicidal effect (index), Slender Amaranth: 5 (90% or more of herbicidal effect and crop phytotoxicity)
[7]
  herbicidal effect (index), Velvetleaf: 5 (90% or more of herbicidal effect and crop phytotoxicity)
[8]
  herbicidal effect (index), Barnyardgrass: 5 (90% or more of herbicidal effect and crop phytotoxicity)
[9]
  herbicidal effect (index), Green Foxtail: 5 (90% or more of herbicidal effect and crop phytotoxicity)
[10]
  herbicidal effect (index), Slender Amaranth: 5 (90% or more of herbicidal effect and crop phytotoxicity)
[11]
  herbicidal effect (index), Velvetleaf: 5 (90% or more of herbicidal effect and crop phytotoxicity)

## COc1ccccc1-n1c(C(F)(F)F)ccc(C(=O)C2=C(O)CCCC2=O)c1=O [I-76]
[1]
  herbicidal effect, Scirpus juncoides Roxb.: 5 (90% or more of herbicidal effect and crop phytotoxicity)
[2]
  herbicidal effect, Echinochloa oryzicola Vasing: 5 (90% or more of herbicidal effect and crop phytotoxicity)
[3]
  herbicidal effect, Monochoria vaginalis (Burm. f.) C. Presl: 5 (90% or more of herbicidal effect and crop phytotoxicity)
[4]
  herbicidal effect (index), Barnyardgrass: 5 (90% or more of herbicidal effect and crop phytotoxicity)
[5]
  herbicidal effect (index), Green Foxtail: 5 (90% or more of herbicidal effect and crop phytotoxicity)
[6]
  herbicidal effect (index), Slender Amaranth: 5 (90% or more of herbicidal effect and crop phytotoxicity)
[7]
  herbicidal effect (index), Velvetleaf: 5 (90% or more of herbicidal effect and crop phytotoxicity)
[8]
  herbicidal effect (index), Barnyardgrass: 5 (90% or more of herbicidal effect and crop phytotoxicity)
[9]
  herbicidal effect (index), Green Foxtail: 3 (50 to less than 70% of herbicidal effect and crop phytotoxicity)
[10]
  herbicidal effect (index), Slender Amaranth: 5 (90% or more of herbicidal effect and crop phytotoxicity)
[11]
  herbicidal effect (index), Velvetleaf: 5 (90% or more of herbicidal effect and crop phytotoxicity)

— US8076487B2, “Pyridone derivative and herbicide” (Kumiai Chemical Industry Co., Ltd., priority 2006, dated 2011)
